Laboratory results as given in patent US20220152085A1, “COMBINATION IMMUNOREGULATION AND USES THEREOF” (Ohio State Innovation Foundation, priority 2019, published 2022).
Counter-ions that a name gives are not always drawn.

Tested on: E.G7-OVA cells
Assay: Endocytic pathways: cellular uptake of PL1-Alexa-Fluor 647-labeled RNA nanoparticles with endocytic inhibitors, flow cytometry
Format: cell-based
Conditions: inhibitor 0.5 h before nanoparticles, flow cytometry after 3 h, FIG. 13
Description: E.G7-OVA cells were treated with 5-(N-Methyl-N-isopropyl)amiloride (EIPA), chlorpromazine hydrochloride (CPZ), or methyl-β-cyclodextrin (MβCD). After 0.5 h, cells were treated with PL1-Alexa-Fluor 647-labeled RNA nanoparticles. After 3 h, cells were analyzed by flow cytometry. All data are from n=3 biologically independent samples and are presented as mean±S.E.M. Statistical significance was analyzed by the two-tailed Student's t-test. *P<0.05.
Biomimetic compounds, phospholipids and glycolipids, are composed of a biomimetic head (phosphate head or glyco head), an ionizable amino core, and multiple hydrophobic tails (FIG. 11). These phospholipid and glycolipid derivatives (PLs and GLs) were synthesized according to previously reported procedures. See, for example, WO/2019/027999. […] Following this synthetic route, PL1-18 and GL1-16 materials were synthesized (FIG. 4C), which were characterized by […] nuclear magnetic resonance (NMR) and mass spectroscopy (MS) (FIG. 4C). Next, PLs and GLs nanoparticles were formulated with firefly luciferase mRNA (FLuc mRNA), and were characterized according to size, surface charge, and mRNA encapsulation efficiency (FIGS. 12A-12C). […]

CN(C)CCCN1c2ccccc2Sc2ccc(Cl)cc21 [CPZ, chlorpromazine hydrochloride]
inhibition of cellular uptake of PL1 nanoparticles: 56%

methyl-β-cyclodextrin [MβCD]
inhibition of cellular uptake of PL1 nanoparticles: 39%
